Test results reported in PubChem BioAssay (NCI).
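Tested at 5 concentrations; 48 h exposure; 96-well plates; endpoints linearly interpolated, else capped at highest concentration. At the GI50, growth is halved. TGI marks complete inhibition of growth.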

Tests used:
Experiment in all cases: DTP human tumour cell line panel, 48 h
[1] = test system: ACHN renal
[2] = test system: DU-145 prostate
[3] = test system: HOP-92 NSCLC
[4] = test system: HS 578T breast
[5] = test system: HT29 colon
[6] = test system: NCI-H23 lung
[7] = test system: SK-MEL-28 melanoma
[8] = test system: SN12C renal
[9] = test system: SW-620 colon
[10] = test system: TK-10 renal

Compound: OCC1CC[N-]CC1.OCC1CC[N-]CC1.[Cl][Pt+2]([Cl])([Cl])[Cl]
- GI50 [1]: 38.8 µM
- GI50 [2]: 20.8 µM
- TGI [2]: 61.5 µM
- GI50 [3]: 34.2 µM
- TGI [3]: 87 µM
- GI50 [4]: 45.8 µM
- GI50 [5]: 17.1 µM
- TGI [5]: 51.7 µM
- GI50 [6]: 28.6 µM
- GI50 [7]: 60 µM
- GI50 [8]: 30.8 µM
- GI50 [9]: 23 µM
- GI50 [10]: 37.3 µM

Compound: COc1cc(OC)c(OC)cc1/C=C/c1nc2ccccc2s1
- TGI [1]: > 100 µM
- TGI [2]: > 100 µM
- TGI [3]: 56.9 µM
- TGI [4]: > 100 µM
- TGI [5]: > 100 µM
- TGI [6]: > 100 µM
- TGI [7]: > 100 µM
- TGI [8]: > 100 µM
- TGI [9]: > 100 µM
- TGI [10]: > 100 µM

Compound: CCCCCCCCCCCC[C@@H](O)[C@H]1CC[C@H]([C@H](O)CC[C@H](O)[C@@H]2CC[C@@H](CCCCCCCC3=C[C@H](C)OC3=O)O2)O1
- GI50 [1]: 2.51 µM
- TGI [1]: > 50 µM
- GI50 [2]: > 50 µM
- TGI [2]: > 50 µM
- GI50 [3]: 3.08 µM
- TGI [3]: > 50 µM
- GI50 [4]: > 50 µM
- TGI [4]: > 50 µM
- TGI [5]: > 50 µM
- GI50 [6]: 0.164 µM
- TGI [6]: > 50 µM
- GI50 [7]: 3.37 µM
- TGI [7]: > 50 µM
- GI50 [8]: > 50 µM
- TGI [8]: > 50 µM
- GI50 [9]: 3.23 µM
- TGI [9]: > 50 µM
- GI50 [10]: 1.24 µM
- TGI [10]: > 50 µM

Compound: Cn1c(=O)c2nc3sc4c(n3c2n(C)c1=O)C(=O)c1ccccc1C4=O
- TGI [1]: > 54.7 µM
- TGI [2]: > 100 µM
- TGI [3]: > 42.7 µM
- TGI [4]: 51.5 µM
- TGI [5]: > 56.2 µM
- TGI [6]: > 75.1 µM
- TGI [7]: > 100 µM
- TGI [8]: > 87.5 µM
- TGI [9]: > 81.9 µM
- TGI [10]: > 100 µM

Compound: CNCc1ccc(-c2cc(-c3nc(-c4ccc(S(=O)(=O)C(C)C)cc4)cnc3N)on2)cc1
- GI50 [1]: 0.115 µM
- TGI [1]: 10.9 µM
- GI50 [2]: 0.798 µM
- TGI [2]: 5.91 µM
- GI50 [3]: 13.3 µM
- TGI [3]: 30.6 µM
- GI50 [4]: 4.61 µM
- TGI [4]: 38 µM
- GI50 [5]: 0.492 µM
- TGI [5]: 1.83 µM
- GI50 [6]: 0.676 µM
- TGI [6]: 28.3 µM
- GI50 [7]: 1.72 µM
- TGI [7]: 3.21 µM
- GI50 [8]: 8.58 µM
- TGI [8]: 33.4 µM
- GI50 [9]: 1.43 µM
- TGI [9]: 3.78 µM
- GI50 [10]: 10.2 µM
- TGI [10]: 22.3 µM

Compound: CCCCCC(=O)O[C@]1(C(C)=O)CCC2C3CCC4=CC(=O)CC[C@]4(C)C3CC[C@@]21C (some centres not stated)
- GI50 [1]: 3 µM
- TGI [1]: 11.6 µM
- GI50 [2]: 3.56 µM
- TGI [2]: 13.4 µM
- GI50 [3]: 0.766 µM
- TGI [3]: 3.31 µM
- GI50 [4]: 0.421 µM
- TGI [4]: > 50.5 µM
- GI50 [5]: 2.59 µM
- TGI [5]: 7.88 µM
- GI50 [6]: 2.46 µM
- TGI [6]: 9.97 µM
- GI50 [7]: 2.49 µM
- TGI [7]: 6.82 µM
- GI50 [8]: 1.6 µM
- TGI [8]: 3.37 µM
- GI50 [9]: 2.86 µM
- TGI [9]: 15.1 µM
- GI50 [10]: 3.46 µM
- TGI [10]: > 23.7 µM

Compound: CCCCS(=O)c1sc2nc(-c3cccs3)cc(-c3ccccc3)c2c1N (configuration not stated)
- GI50 [1]: 9.1 µM
- TGI [1]: > 95.3 µM
- GI50 [2]: 30.4 µM
- TGI [2]: > 100 µM
- GI50 [3]: 5.78 µM
- TGI [3]: 66.1 µM
- GI50 [4]: 18.9 µM
- TGI [4]: > 100 µM
- GI50 [5]: 20.6 µM
- TGI [5]: > 100 µM
- GI50 [6]: 19 µM
- TGI [6]: > 100 µM
- GI50 [7]: 29.2 µM
- TGI [7]: > 100 µM
- GI50 [8]: 24.9 µM
- TGI [8]: > 100 µM
- GI50 [9]: 26 µM
- TGI [9]: > 100 µM
- GI50 [10]: 15 µM
- TGI [10]: > 84 µM
